Consider 13 compounds from PubChem BioAssay (NCI).

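Method: 48-hour compound exposure of cells in 96-well plates, five concentrations, linear interpolation of endpoints. GI50 is the concentration that inhibits growth by half. TGI: total growth inhibition.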

Some test systems named below: SF-268 CNS; OVCAR-8 ovarian; DU-145 prostate; A498 renal; COLO 205 colon; CAKI-1 renal; SK-MEL-28 melanoma; MDA-MB-435; T-47D breast; RXF 393 renal.
Holding throughout (experiment): DTP human tumour cell line panel, 48 h

What is called TGI is the concentration at which net growth stops. Read a low TGI as more potent growth arrest. Regarding `O=C1CC(c2cccc(Br)c2)n2cccc21` (stereo not drawn), the TGI with SF-268 CNS, with OVCAR-8 ovarian, with DU-145 prostate, in the experiment on A498 renal, in the experiment with COLO 205 colon and in the experiment with CAKI-1 renal was > 100 µM in each case. For the same compound, the TGI in the experiment on SK-MEL-28 melanoma, in the experiment on MDA-MB-435, in the experiment on T-47D breast and with RXF 393 renal was > 100 µM each time.

Take `COc1c(O)cc2c(c1O)C(=O)/C(=C/c1ccc(O)cc1)CO2`: the TGI with SF-268 CNS was > 100 µM; in the experiment on OVCAR-8 ovarian, 39.6 µM; with DU-145 prostate it was 78.1 µM; in the experiment on A498 renal, > 100 µM; in the experiment with COLO 205 colon, 32.5 µM; in the experiment on CAKI-1 renal, 53.9 µM. The TGI with SK-MEL-28 melanoma was 35.3 µM; in the experiment on MDA-MB-435 it was > 100 µM; in the experiment with T-47D breast, 94.8 µM; in the experiment on RXF 393 renal it was > 100 µM.

For `Cc1ccc(NC(=O)CSc2nc(=O)[nH]c3nc[nH]c23)cc1`, the TGI in the experiment with SF-268 CNS was > 100 µM; in the experiment on OVCAR-8 ovarian, > 100 µM; in the experiment with DU-145 prostate, > 100 µM; with A498 renal, 89.9 µM; in the experiment with COLO 205 colon, > 100 µM; in the experiment with CAKI-1 renal, > 100 µM. Moreover, the TGI in the experiment on SK-MEL-28 melanoma, with MDA-MB-435, with T-47D breast and in the experiment with RXF 393 renal was > 100 µM in each case.

On to `COc1ccc(C2SCC(=O)N2NC(=O)c2ccc(NC(C)=O)cc2)cc1` (stereo not drawn), for which the TGI in the experiment with SF-268 CNS, in the experiment with OVCAR-8 ovarian, in the experiment with DU-145 prostate, in the experiment on A498 renal, with COLO 205 colon and in the experiment on SK-MEL-28 melanoma was > 100 µM each time. The TGI in the experiment on MDA-MB-435, in the experiment on T-47D breast and in the experiment on RXF 393 renal was > 100 µM throughout.

With `Nc1ccc(C(=O)c2cn(CCN3CCOCC3)c3ccccc23)c2ccccc12`, the TGI is > 100 µM in the experiment with SF-268 CNS; 52.7 µM in the experiment on OVCAR-8 ovarian; > 100 µM in the experiment on DU-145 prostate; > 100 µM in the experiment on A498 renal; 60.6 µM in the experiment with COLO 205 colon; > 100 µM in the experiment on CAKI-1 renal. Besides, the results for the total growth inhibition concentration (TGI) in the experiment with SK-MEL-28 melanoma, in the experiment on MDA-MB-435 and with T-47D breast were > 100 µM, 83 µM and 72.8 µM, respectively.

Turning to `O=C1Nc2ccc(Cl)cc2/C1=C\c1c(Cl)nc2sccn12`, the TGI in the experiment on SF-268 CNS is > 100 µM; in the experiment on OVCAR-8 ovarian it was > 100 µM; with DU-145 prostate, > 100 µM; in the experiment with A498 renal it was 8.66 µM; with CAKI-1 renal, > 100 µM; in the experiment on SK-MEL-28 melanoma, > 100 µM. For the same compound, the TGI is 3.22 µM in the experiment with MDA-MB-435, > 100 µM with T-47D breast and > 100 µM in the experiment on RXF 393 renal.

As for `O=c1[nH]nc(Cc2ccccc2)n1CCO`, the TGI in the experiment on SF-268 CNS, in the experiment with OVCAR-8 ovarian, in the experiment on DU-145 prostate, with A498 renal, in the experiment with COLO 205 colon and in the experiment with CAKI-1 renal was > 100 µM in each case. Also, the concentration for total growth inhibition (TGI) in the experiment on SK-MEL-28 melanoma, with MDA-MB-435 and with T-47D breast was > 100 µM throughout.

The term GI50 denotes the concentration that inhibits growth by half. Consider `Cc1ccc(N(CC(=O)Nc2ccc(S(=O)(=O)N3CCC(N4CCCC4)CC3)cc2)S(=O)(=O)c2ccc(Cl)cc2)cc1`, for which the GI50 with SF-268 CNS was 1.61 µM; in the experiment on OVCAR-8 ovarian, 1.86 µM; in the experiment with DU-145 prostate, 1.76 µM; with A498 renal it was 1.44 µM; in the experiment on COLO 205 colon, 1.75 µM; in the experiment on CAKI-1 renal, 1.65 µM. Moreover, the GI50 with MDA-MB-435 was 1.69 µM; with T-47D breast, 1.74 µM; with RXF 393 renal, 1.16 µM. Also, the TGI in the experiment with SF-268 CNS worked out at 3.29 µM; in the experiment with OVCAR-8 ovarian, 3.76 µM; in the experiment with DU-145 prostate it was 3.4 µM; in the experiment on A498 renal, 2.84 µM; with COLO 205 colon, 3.39 µM; in the experiment with CAKI-1 renal, 3.31 µM. For the same compound, the TGI was 3.14 µM with MDA-MB-435, 3.91 µM with T-47D breast and 2.78 µM in the experiment with RXF 393 renal.

Regarding `O=C(NCc1cccc2ccccc12)N/N=C\c1ccc(Cl)cc1`, the TGI in the experiment on SF-268 CNS, in the experiment on OVCAR-8 ovarian, with DU-145 prostate, with COLO 205 colon, with CAKI-1 renal and in the experiment on SK-MEL-28 melanoma was > 100 µM each time. Further, the TGI in the experiment with MDA-MB-435, with T-47D breast and with RXF 393 renal was > 100 µM throughout.

Regarding `CC1(C)C2CC(=O)C1(C)C(OCc1ccccc1)C2` (stereo not drawn), the TGI in the experiment on SF-268 CNS is > 100 µM; in the experiment with OVCAR-8 ovarian it was > 100 µM; in the experiment with DU-145 prostate it was > 100 µM; in the experiment on A498 renal it was > 100 µM; with COLO 205 colon, 90.6 µM; with CAKI-1 renal it was > 100 µM. For the same compound, the TGI in the experiment with SK-MEL-28 melanoma, in the experiment on MDA-MB-435 and in the experiment on T-47D breast was > 100 µM each time.

On to `Nc1nc(N)c2cc(NCc3ccc(Cl)c(Cl)c3)ccc2n1`, for which the GI50 in the experiment with SF-268 CNS is 1.58 µM; with DU-145 prostate, 1.65 µM; in the experiment on A498 renal, 1.16 µM; in the experiment with COLO 205 colon, 1.32 µM; in the experiment on CAKI-1 renal it was 1.37 µM; in the experiment on SK-MEL-28 melanoma, 1.77 µM. Moreover, the GI50 was 1.11 µM with MDA-MB-435, 1.72 µM in the experiment with T-47D breast and 1.13 µM with RXF 393 renal. Moreover, the TGI in the experiment on SF-268 CNS came to 3.12 µM; with DU-145 prostate, 3.01 µM; with A498 renal it was 2.41 µM; in the experiment on COLO 205 colon it was 2.6 µM; in the experiment with CAKI-1 renal, 2.71 µM; in the experiment with SK-MEL-28 melanoma, 3.15 µM. The TGI in the experiment with MDA-MB-435 was 2.4 µM; with T-47D breast, 3.28 µM; in the experiment with RXF 393 renal, 2.34 µM.

Turning to `O=C1OC(=O)c2cc(S(=O)(=O)c3ccc4c(c3)C(=O)OC4=O)ccc21`, the TGI in the experiment with SF-268 CNS, in the experiment with OVCAR-8 ovarian, in the experiment on DU-145 prostate, in the experiment with COLO 205 colon, in the experiment with CAKI-1 renal and in the experiment on SK-MEL-28 melanoma was > 100 µM throughout. In addition, the TGI with MDA-MB-435, in the experiment with T-47D breast and in the experiment on RXF 393 renal was > 100 µM in each case.

Consider `COc1ccc(N2C(=O)C3c4[nH]c5ccc(F)cc5c4C4CCC(c5ccccc5)CC4C3C2=O)cc1` (stereo not drawn), for which the concentration for total growth inhibition (TGI) in the experiment with SF-268 CNS is 20.3 µM; with OVCAR-8 ovarian it was 50.6 µM; in the experiment on DU-145 prostate it was > 100 µM; in the experiment with A498 renal, 34.3 µM; in the experiment on COLO 205 colon it was > 100 µM; with CAKI-1 renal, 48.1 µM. Further, the TGI in the experiment on SK-MEL-28 melanoma was 32.7 µM; in the experiment on MDA-MB-435, 53.9 µM; with T-47D breast, > 100 µM.
